For test [1], the system named is N. gonorrhoeae FA19. Description: Liquid broth MIC, N. gonorrhoeae FA19. Format: cell-based. To be noted: Neisseria gonorrhoeae. In outline: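 Colonies sub-cultured 24 h earlier on supplemented GC agar are suspended in broth, adjusted by optical density at 600 nm and added to 2-fold serial compound dilutions at 5×10^5 CFU/mL. Plates incubate 40-42 hours at 36° C with 5% CO2 before visual MIC reading.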

The target in test [2] is E. coli PBP3 (Escherichia coli (strain K12), UniProt P0AD68). Description: E. coli PBP3 Bocillin-FL fluorescence polarization competition binding assay. The essentials: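 Polarization at 490/520 nm was monitored for 60 minutes in pH 8.0 Hepes buffer containing 300 mM NaCl and 5% glycerol, with compound spanning 0–1000 μM.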
Sequence of E. coli PBP3 (P0AD68 whole entry): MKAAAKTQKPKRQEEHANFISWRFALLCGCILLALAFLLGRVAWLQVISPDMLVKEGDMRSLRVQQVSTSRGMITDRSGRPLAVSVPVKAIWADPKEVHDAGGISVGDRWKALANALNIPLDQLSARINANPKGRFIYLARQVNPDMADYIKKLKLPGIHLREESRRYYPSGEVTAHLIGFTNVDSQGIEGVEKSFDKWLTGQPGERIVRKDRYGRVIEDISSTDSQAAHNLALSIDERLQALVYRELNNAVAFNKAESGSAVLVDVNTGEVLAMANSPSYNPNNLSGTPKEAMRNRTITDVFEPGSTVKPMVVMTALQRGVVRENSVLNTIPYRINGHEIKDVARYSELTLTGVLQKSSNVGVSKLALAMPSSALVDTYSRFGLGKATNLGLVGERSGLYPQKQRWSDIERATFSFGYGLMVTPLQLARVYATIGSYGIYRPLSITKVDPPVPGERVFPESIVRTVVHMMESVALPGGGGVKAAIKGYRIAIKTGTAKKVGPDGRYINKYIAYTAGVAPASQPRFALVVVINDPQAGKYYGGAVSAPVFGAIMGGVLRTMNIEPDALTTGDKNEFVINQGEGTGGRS
(In general: In fluorescence polarisation assays a small probe gives low polarisation when free and higher when bound to something large.)

Test [3] concerns E. coli D22. Description: microbe, parasite or virus in culture. It is filed as cell-based. To be noted: Escherichia coli; hyper-permeable E. coli D22, broth microdilution; read-out: MIC E. coli D22. In outline: (§1)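 Following CLSI guidance, growth inhibition is measured in Mueller-Hinton broth with divalent cations. Inoculum 5×10^5 CFU/mL; incubation 16-20 hours, 37° C; endpoint is visual absence of growth.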
Background: Broth dilution looks for growth in wells or tubes with falling amounts of substance.

Test [4] concerns K. pneumoniae SI-117. Kind of test: microbe, parasite or virus in culture. Format: cell-based. To be noted: Klebsiella pneumoniae, SI117, read-out: MIC K. pneumoniae SI-117. The essentials:
as §1

Test [5] deals with E. coli 901C. Kind of test: microbe, parasite or virus in culture. Format: cell-based. To be noted: Escherichia coli; hyper-permeable E. coli 901C, broth microdilution; read-out: MIC E. coli 901C. In outline:
as §1

Test [6] deals with E. coli AG100A. Description: microbe, parasite or virus in culture. To be noted: Escherichia coli, read-out: MIC E. coli AG100A. It is filed as cell-based. The essentials: as §1
In test [7] the test system is K. pneumoniae UMM. Description: microbe, parasite or virus in culture. It is filed as cell-based. To be noted: Klebsiella pneumoniae; K. pneumoniae UMM producing SHV-5 and KPC-2; read-out: MIC K. pneumoniae UMM. The essentials: as §1
[8] abbreviates: N. gonorrhoeae FA19, liquid broth, read-out: Minimum Inhibitory Concentration, N. gonorrhoeae FA19.
Setting [9] is: fluorescence polarization competition binding with Bocillin-FL, read-out: E. coli K12 PBP3 Potency.

MIC and EC50 data for 5 compounds are collected here from patent US12173018B2, “Penicillin-binding protein inhibitors” (priority 2018, dated 2024).

Values after ≈ are worked out from the molar mass of the structure shown. Like-named read-outs stand apart in the source and are kept apart here.

For `O=C(O)c1cccc2c1OB(O)[C@@H](NC(=O)C(NC(=O)N1CCN(CCF)C(=O)C1=O)c1ccc(B(O)O)cc1)C2` (stereo partly drawn) [Example 113, (3R)-3-(2-(4-boronophenyl)-2-(4-(2-fluoroethyl)-2,3-dioxopiperazine-1-carboxamido)acetamido)-2-hydroxy-3,4-dihydro-2H-benzo[e][1,2]oxaborinine-8-carboxylic acid], the MIC was 1 to 2 mg/L (≈ 1.75 to 3.51 µM) in test [1] (setting [8]); 8 to 16 mg/L in test [3]; above 128 mg/L in test [4]; below 0.25 mg/L in test [5]; 2 to 4 mg/L in test [6]; 32 to 64 mg/L in test [7]. Besides, the EC50 in test [2] lay within 30 to 500 µM.
For the compound `CCN1CCN(C(=O)N[C@@H](C(=O)N[C@H]2Cc3cccc(C(=O)O)c3OB2O)c2ncc(O)cc2F)C(=O)C1=O` [Example 177, (R)-3-((R)-2-(4-ethyl-2,3-dioxopiperazine-1-carboxamido)-2-(3-fluoro-5-hydroxypyridin-2-yl)acetamido)-2-hydroxy-3,4-dihydro-2H-benzo[e][1,2]oxaborinine-8-carboxylic acid], the MIC in test [1] (setting [8]) was 4 to 8 mg/L (≈ 7.36 to 14.7 µM); in test [3] it was 0.5 to 1 mg/L; in test [4] it was 32 to 64 mg/L; in test [5], below 0.25 mg/L; in test [6] it was 0.5 to 1 mg/L; in test [7], 8 to 16 mg/L. The EC50 in test [2] (setting [9]) is below 30 µM.
With `NS(=O)(=O)c1ccc(C(NC(=O)N2CCN(CCF)C(=O)C2=O)C(=O)N[C@H]2Cc3cccc(C(=O)O)c3OB2O)c(F)c1` (stereo partly drawn) [Example 204, (3R)-3-(2-(2-fluoro-4-sulfamoylphenyl)-2-(4-(2-fluoroethyl)-2,3-dioxopiperazine-1-carboxamido)acetamido)-2-hydroxy-3,4-dihydro-2H-benzo[e][1,2]oxaborinine-8-carboxylic acid], the MIC in test [1] (setting [8]) is 1 to 2 mg/L (≈ 1.6 to 3.21 µM); in test [3] it was 2 to 4 mg/L; in test [4] it was above 128 mg/L; in test [5] it was below 0.25 mg/L; in test [6], 2 to 4 mg/L; in test [7] it was 32 to 64 mg/L. Also, the EC50 in test [2] (setting [9]) is below 30 µM.
As for `CCN1C[C@H](CO)N(C(=O)NC(C(=O)N[C@H]2Cc3cccc(C(=O)O)c3OB2O)c2ncc(O)cc2F)C(=O)C1=O` (stereo partly drawn) [Example 234, (3R)-3-(2-((R)-4-ethyl-6-(hydroxymethyl)-2,3-dioxopiperazine-1-carboxamido)-2-(3-fluoro-5-hydroxypyridin-2-yl)acetamido)-2-hydroxy-3,4-dihydro-2H-benzo[e][1,2]oxaborinine-8-carboxylic acid], the MIC is 16 to 32 mg/L (≈ 27.9 to 55.8 µM) in test [1] (FA19, read-out: Minimum Inhibitory Concentration, N. gonorrhoeae FA19); 8 to 16 mg/L in test [3]; above 128 mg/L in test [4]; 2 to 4 mg/L in test [5]; 8 to 16 mg/L in test [6]; 32 to 64 mg/L in test [7]. Moreover, the EC50 in test [2] (setting [9]) is below 30 µM.
Regarding `NCCN1CCN(C(=O)N[C@@H](C(=O)N[C@H]2Cc3ccc(F)c(C(=O)O)c3OB2O)c2ncc(O)cc2F)C(=O)C1=O` [Example 230, (R)-3-((R)-2-(4-(2-aminoethyl)-2,3-dioxopiperazine-1-carboxamido)-2-(3-fluoro-5-hydroxypyridin-2-yl)acetamido)-7-fluoro-2-hydroxy-3,4-dihydro-2H-benzo[e][1,2]oxaborinine-8-carboxylic acid], the MIC in test [1] (setting [8]) lay in the range of 4 to 8 mg/L (≈ 6.94 to 13.9 µM); in test [3], 2 to 4 mg/L; in test [4], 8 to 16 mg/L; in test [5] it was 0.5 to 1 mg/L; in test [6] it was 2 to 4 mg/L; in test [7], 8 to 16 mg/L. Besides, in test [2] (setting [9]), the EC50 was below 30 µM.
